Experimental data: patent US5037828A, “Piperazine derivatives, uses thereof and pharmaceutical compositions containing them” (Boehringer Mannheim GmbH, priority 1989, dated 1991)

Assays:
[1] = test system: isolated rat aortic strips; test: In vitro vasorelaxation of isolated rat aortic strips precontracted with noradrenaline; conditions: 25 min, 3 × 10^-6 M, noradrenaline 10^-5 M precontraction, end of 25 min incubation, mean of 4-6 experiments
Procedure: 2. In vitro investigations were performed on isolated rat aortic strips precontracted with noradrenaline (10^-5 M). The test compounds were added to the bath solution at concentrations of 3×10^-6 M in order to test for vasorelaxation. The relaxation was evaluated at the end of an incubation period of 25 min. High values indicate a strong vasorelaxing effect.

α1 -receptor = test: Receptor binding study, displacement of tritium-labeled prazosin in brain membrane homogenates; conditions: mean of 4-6 experiments, read-out: α1 -receptor affinity IC50
Procedure: 1. The affinities of the compounds were studied in receptor binding studies using prazosin as tritium-labeled ligand. The investigations were performed in brain membrane homogenates. The affinity was expressed as IC50 -value (the IC50 -value is the concentration in nmol/l which displaces 50% of the labeled ligand). Low values indicate a high affinity.

[2] = in words; U.S. Pat. No. 3,997,666; cited from earlier work
[3] = test system: anaphylactoid reactions in rats induced by dextran; conditions: in words, U.S. Pat. No. 3,997,666; cited from earlier work
[4] = test system: conscious spontaneously hypertensive rats; test: Blood pressure lowering activity in conscious spontaneously hypertensive rats; type: in vivo, rat; conditions: 10 mg/kg i.v.; 15 min after administration; mean arterial blood pressure; mean of 4-6 experiments
Procedure: 3. The blood pressure lowering activity of the test compounds was investigated in conscious spontaneously hypertensive rats. The blood pressure response to the test compounds was evaluated by means of continuous monitoring of the mean arterial blood pressure via an implanted catheter, electromagnetic transducer and a direct recording system. The test compounds were injected at a dose of 10 mg/kg i.v. and the blood pressure response was determined 15 min after administration.

SMILES | inhibition at 3 µM [1] [%] | IC50 (α1 -receptor) [nM] | antihypertensive properties [2] | inhibition of anaphylactoid reactions induced by dextran [3] | blood pressure decrease [4] [mmHg]
COc1ccccc1N1CCN(CC(O)COc2cccc3ccccc23)CC1 (centres unmarked) [naftopidil, 1(2-methoxyphenyl)-4-/3-(naphth-1-yloxy)-2-hydroxypropyl/-piperazine] | 53 | 235 | possesses antihypertensive properties | inhibits anaphylactoid reactions in rats induced by dextran | 31
COc1ccccc1N1CCN(CC(O)COc2ccc(O)c3ccccc23)CC1 (centres unmarked) [Example 3, 1-(2-Methoxyphenyl)-4-[3-(4-hydroxynaphth-1-yloxy)-2-hydroxypropyl]-piperazine] | 85 | 52.7 |  |  | 48
